Results taken from PubChem BioAssay AID330 (DTP/NCI, 2004).
Where “and” joins values, the source holds several entries; their conditions need not be identical. Identical values can stand only once. Toxic doses and inconclusive results are not listed.

System: P388 leukemia ip, CD2F1 mice, survival T/C
Experiment: NCI In Vivo Anticancer Drug Screen. Data for tumor model P388 Leukemia (intraperitoneal) in CD2F1 (CDF1) mice
Settings: endpoint: median survival time, higher = longer survival
In short: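 Mice carrying the transplanted tumor received test compound or vehicle. Survival was recorded in each group, and the value is the treated-group measurement divided by that of the vehicle-treated control group.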

[1] = dose: 50.0 mg/kg/injection, schedule: Q01DX005 (ip), vehicle: saline with Tween-80
[2] = dose: 200.0 mg/kg/injection, schedule: Q01DX005 (ip), vehicle: saline with Tween-80
[3] = dose: 12.5 mg/kg/injection, schedule: Q01DX009 (ip), vehicle: saline
[4] = dose: 25.0 mg/kg/injection, schedule: Q01DX009 (ip), vehicle: saline
[5] = dose: 60.0 mg/kg/injection, schedule: Q01DX005 (ip), vehicle: saline with Tween-80
[6] = dose: 120.0 mg/kg/injection, schedule: Q01DX005 (ip), vehicle: saline with Tween-80
[7] = dose: 100.0 mg/kg/injection, schedule: Q01DX005 (ip), vehicle: saline with Tween-80
[8] = dose: 50.0 mg/kg/injection, schedule: Q01DX009 (ip), vehicle: Klucel (hydroxypropylcellulose) (HPC)

Nc1nc(=S)c2ncn(C3OC(CO)C(O)C3O)c2[nH]1 (stereo unspecified)
T/C (dose: 2.0 mg/kg/injection, schedule: Q01DX010 (ip), vehicle: saline): 168 % of control | T/C (dose: 8.0 mg/kg/injection, schedule: Q01DX010 (ip), vehicle: saline): 118 % of control | T/C (dose: 25.0 mg/kg/injection, schedule: Q01DX005 (ip), vehicle: saline with Tween-80): 104 % of control | T/C [1]: 120 % of control | T/C (dose: 100.0 mg/kg/injection, schedule: Q04DX003 (ip), vehicle: saline sonified): 122 % of control | T/C (dose: 132.0 mg/kg/injection, schedule: Q04DX003 (ip), vehicle: saline with Tween-80): 117 % of control | T/C [2]: 150 % of control and 158 % of control | T/C (dose: 400.0 mg/kg/injection, schedule: Q04DX003 (ip), vehicle: saline sonified): 86 % of control

CCC(C)NCC/C(=C\[Si](C)(C)C)c1ccccc1 (stereo unspecified)
T/C (dose: 100.0 mg/kg/injection, schedule: Q01DX001 (ip), vehicle: saline with Tween-80): 100 % of control | T/C (dose: 200.0 mg/kg/injection, schedule: Q01DX001 (ip), vehicle: saline with Tween-80): 106 % of control

CN(C)c1ccc(/C=C/C(=O)c2nc3ccccc3[nH]2)cc1
T/C (dose: 100.0 mg/kg/injection, schedule: Q04DX003 (ip), vehicle: Klucel (hydroxypropylcellulose) (HPC)): 100 % of control | T/C (dose: 200.0 mg/kg/injection, schedule: Q04DX003 (ip), vehicle: Klucel (hydroxypropylcellulose) (HPC)): 100 % of control | T/C (dose: 400.0 mg/kg/injection, schedule: Q04DX003 (ip), vehicle: Klucel (hydroxypropylcellulose) (HPC)): 86 % of control

O=C1C[N+]2(Cc3ccccc3)CCC1CC2
T/C [3]: 101 % of control | T/C [4]: 108 % of control | T/C (dose: 50.0 mg/kg/injection, schedule: Q01DX009 (ip), vehicle: saline): 90 % of control

O/C(=C/c1ncnc2ccccc12)c1cccc(Cl)c1
T/C [5]: 102 % of control | T/C [6]: 92 % of control

Cc1nn(CC(=O)O)c(=O)c(C#N)c1-c1ccccc1
T/C (dose: 62.5 mg/kg/injection, schedule: Q04DX002 (ip), vehicle: other): 116 % of control | T/C (dose: 125.0 mg/kg/injection, schedule: Q04DX002 (ip), vehicle: other): 102 % of control | T/C (dose: 250.0 mg/kg/injection, schedule: Q04DX002 (ip), vehicle: other): 115 % of control | T/C (dose: 500.0 mg/kg/injection, schedule: Q04DX002 (ip), vehicle: other): 109 % of control

COc1ccc2c(c1)CSCC2O (stereo unspecified)
T/C (dose: 50.0 mg/kg/injection, schedule: Q01DX009 (ip), vehicle: other): 95 % of control | T/C (dose: 100.0 mg/kg/injection, schedule: Q01DX009 (ip), vehicle: other): 100 % of control | T/C (dose: 200.0 mg/kg/injection, schedule: Q01DX009 (ip), vehicle: other): 96 % of control

CCOC(=O)c1cncc(Br)c1
T/C [1]: 113 % of control | T/C [7]: 103 % of control | T/C [2]: 113 % of control

CC(C)c1ccccc1[S+]1OC(C)(C)c2ccccc21 (stereo unspecified)
T/C [8]: 107 % of control | T/C (dose: 100.0 mg/kg/injection, schedule: Q01DX009 (ip), vehicle: Klucel (hydroxypropylcellulose) (HPC)): 103 % of control | T/C (dose: 200.0 mg/kg/injection, schedule: Q01DX009 (ip), vehicle: Klucel (hydroxypropylcellulose) (HPC)): 95 % of control

C=C1C(=O)OC2CC3(C)OC3CC(O)/C(C)=C/C(OC(=O)C(C)C)C12 (stereo unspecified)
T/C (dose: 6.25 mg/kg/injection, schedule: Q01DX009 (ip), vehicle: saline): 110 % of control | T/C [3]: 112 % of control | T/C [4]: 121 % of control

NC1CCC(O)CC1C(=O)O (stereo unspecified)
T/C [1]: 99 % of control | T/C [7]: 103 % of control | T/C [2]: 86 % of control

CC(C)COC1CN=NN1/C=C1\CCOC1=O (stereo unspecified)
T/C [5]: 102 % of control | T/C [6]: 107 % of control | T/C (dose: 240.0 mg/kg/injection, schedule: Q01DX005 (ip), vehicle: saline with Tween-80): 100 % of control

CS(=O)(=O)C(CCC(=O)C(c1ccccc1)c1ccccc1)C(=O)c1ccccc1 (stereo unspecified)
T/C (dose: 50.0 mg/kg/injection, schedule: Q01DX005 (ip), vehicle: Klucel (hydroxypropylcellulose) (HPC)): 110 % of control | T/C (dose: 100.0 mg/kg/injection, schedule: Q01DX005 (ip), vehicle: Klucel (hydroxypropylcellulose) (HPC)): 109 % of control | T/C (dose: 200.0 mg/kg/injection, schedule: Q01DX005 (ip), vehicle: Klucel (hydroxypropylcellulose) (HPC)): 93 % of control

CCN(CC)Sc1cccc([N+](=O)[O-])c1
T/C (dose: 12.5 mg/kg/injection, schedule: Q01DX009 (ip), vehicle: Klucel (hydroxypropylcellulose) (HPC)): 108 % of control | T/C (dose: 25.0 mg/kg/injection, schedule: Q01DX009 (ip), vehicle: Klucel (hydroxypropylcellulose) (HPC)): 118 % of control | T/C [8]: 113 % of control and 119 % of control
